# The source made the active and inactive calls.
# Assays:
# Streptococcus = assay: Group A Streptococcus viability loss, dose response, counter-screen for streptokinase expression inhibitor project, luminescence, BacTiterGlo (AID 1915); format: functional, organism-based;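 note: potency for reduction of bacterial viability or growth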
# [1] = tested on: Streptococcus sp. 'group A'; assay: growth inhibition of control SK(-) GAS strain, dose response, counter-screen for streptokinase expression inhibitor project, luminescence, kanamycin, BacTiterGlo, confirmation (AID 1900); format: functional, organism-based
# Streptokinase A = biological target: T1, Streptokinase A (Streptococcus pyogenes serotype M1, UniProt P10520); assay: S. pyogenes streptokinase expression inhibitors, potency, dose response, plasminogen activation absorbance, OD405 (AID 1914); format: functional, Streptococcus pyogenes M1 GAS;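 note: secreted streptokinase activity via plasminogen activation per viability signal from cell pellet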
# T1 sequence (P10520 whole entry): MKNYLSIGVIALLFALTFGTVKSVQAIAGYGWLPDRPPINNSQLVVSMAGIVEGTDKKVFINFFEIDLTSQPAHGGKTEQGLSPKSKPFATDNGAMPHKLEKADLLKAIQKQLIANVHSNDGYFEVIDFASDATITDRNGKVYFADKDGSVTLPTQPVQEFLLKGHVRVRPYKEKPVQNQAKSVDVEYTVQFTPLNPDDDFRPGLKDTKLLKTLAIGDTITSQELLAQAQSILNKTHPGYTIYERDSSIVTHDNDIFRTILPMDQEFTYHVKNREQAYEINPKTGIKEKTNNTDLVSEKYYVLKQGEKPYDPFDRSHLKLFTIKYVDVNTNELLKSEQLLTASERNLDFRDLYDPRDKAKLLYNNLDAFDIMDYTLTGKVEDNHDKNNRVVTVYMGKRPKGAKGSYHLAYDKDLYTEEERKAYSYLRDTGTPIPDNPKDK
# [2] = biological target: T2, Ubiquitin-conjugating enzyme E2 N (Homo sapiens, UniProt P61088); format: functional;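 note: Dose-response confirmation in a TR-FRET assay detecting UBC13-driven polyubiquitin chain formation, inhibition measured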
# T2 sequence (P61088 whole entry): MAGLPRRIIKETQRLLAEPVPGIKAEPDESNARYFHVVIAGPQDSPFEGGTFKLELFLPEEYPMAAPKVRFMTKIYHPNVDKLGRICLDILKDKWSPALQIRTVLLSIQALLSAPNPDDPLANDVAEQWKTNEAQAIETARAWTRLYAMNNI
# [3] = HEp-2 cell cytotoxicity, dose response, cytotoxicity control for RSV inhibitor project, HTS (AID 2410); format: functional; conditions: human respiratory syncytial virus
# Cytochrome P450 3A4 = Cytochrome P450 3A4 (Homo sapiens, UniProt P08684); conditions: Potency;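 note: confirmatory qHTS run detecting inhibitors and substrates of CYP3A4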
# Fatty acid synthase [4] = biological target: T3, Fatty acid synthase (Homo sapiens, UniProt P49327); assay: FAS thioesterase domain inhibitors, dose response, biochemical, endpoint fluorescence intensity, uHTS hits (AID 624327); format: functional;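 note: fluorescence from hydrolysis of an O-methyl fluorescein acyl ester substrate by the enzyme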
# Fatty acid synthase [5] = biological target: T3, Fatty acid synthase; assay: FAS thioesterase domain inhibitors, dose response, biochemical, kinetic fluorescence intensity (AID 624326); format: functional;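 note: rate of fluorescence rise from hydrolysis of a fluorogenic O-methyl fluorescein ester substrate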
# Vero = assay: cells; format: functional; conditions: Chlorocebus sabaeus
# [6] = biological target: T4, Carboxy-terminal domain RNA polymerase II polypeptide A small phosphatase 1 (Homo sapiens, UniProt Q9GZU7); assay: inhibitors of CTDSP1, concentration-response testing, biochemical assay, absorbance-based, actives from ultra-high-throughput screening (AID 540297); format: functional
# T4 sequence (Q9GZU7 whole entry): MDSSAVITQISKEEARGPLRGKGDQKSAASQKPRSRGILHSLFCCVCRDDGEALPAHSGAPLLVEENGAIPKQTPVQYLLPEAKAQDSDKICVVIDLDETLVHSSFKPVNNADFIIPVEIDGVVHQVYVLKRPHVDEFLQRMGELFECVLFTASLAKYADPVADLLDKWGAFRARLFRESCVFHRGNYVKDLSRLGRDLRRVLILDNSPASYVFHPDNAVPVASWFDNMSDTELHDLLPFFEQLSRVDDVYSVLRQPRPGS
# [7] = biological target: Induced myeloid leukemia cell differentiation protein Mcl-1 (Homo sapiens, UniProt Q07820); format: functional
# [8] = biological target: T5, Short transient receptor potential channel 4 (Mus musculus, UniProt Q9QUQ5); assay: mouse TRPC4 channel activators, dose response, cell-based, HEK293 TRPC4/mu-opioid, Fluo-4 calcium (AID 434937); format: functional
# T5 sequence (Q9QUQ5 whole entry): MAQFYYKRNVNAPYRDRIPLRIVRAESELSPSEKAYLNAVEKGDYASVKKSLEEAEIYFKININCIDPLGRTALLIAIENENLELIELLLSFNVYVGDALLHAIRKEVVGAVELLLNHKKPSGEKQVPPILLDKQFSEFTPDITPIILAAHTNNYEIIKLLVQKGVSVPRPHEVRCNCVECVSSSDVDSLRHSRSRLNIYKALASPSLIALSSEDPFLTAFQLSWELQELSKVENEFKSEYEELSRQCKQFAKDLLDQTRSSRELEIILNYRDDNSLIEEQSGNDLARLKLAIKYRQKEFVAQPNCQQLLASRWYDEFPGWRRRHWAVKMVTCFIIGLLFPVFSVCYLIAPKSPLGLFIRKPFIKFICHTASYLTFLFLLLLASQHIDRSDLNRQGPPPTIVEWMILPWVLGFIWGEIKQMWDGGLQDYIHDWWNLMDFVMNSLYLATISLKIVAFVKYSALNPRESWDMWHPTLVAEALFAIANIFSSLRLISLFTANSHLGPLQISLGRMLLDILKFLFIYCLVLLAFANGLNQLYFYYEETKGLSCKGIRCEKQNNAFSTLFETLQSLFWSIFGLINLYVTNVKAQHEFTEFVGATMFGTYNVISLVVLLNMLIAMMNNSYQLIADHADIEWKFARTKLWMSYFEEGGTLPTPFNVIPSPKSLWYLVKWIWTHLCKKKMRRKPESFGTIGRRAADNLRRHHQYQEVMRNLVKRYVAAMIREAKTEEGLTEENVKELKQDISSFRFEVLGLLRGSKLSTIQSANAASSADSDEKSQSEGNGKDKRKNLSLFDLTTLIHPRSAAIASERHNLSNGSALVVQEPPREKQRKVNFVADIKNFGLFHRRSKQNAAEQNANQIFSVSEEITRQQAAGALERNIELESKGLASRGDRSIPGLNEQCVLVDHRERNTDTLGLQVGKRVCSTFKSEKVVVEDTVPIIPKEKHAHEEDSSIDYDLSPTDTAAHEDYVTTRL
# [9] = growth suppression of PTEN-null colon cells, dose response, cell-based, HCT116 PTEN knockout (AID 1047); format: functional;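 note: HCT116 colon tumor cells with PTEN knocked out; cells exposed to compound for 60 hours before readout; potency for loss of cell viability measured by luminescence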
# [10] = growth suppression of beta-catenin-knockout colon cells, dose response, cell-based, HCT116, human colon tumor (AID 1045); format: functional;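 note: HCT116 colon tumor cells with beta catenin knocked out; cells exposed to compound for 60 hours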
# [11] = cytotoxicity toward DRD oncogenic fibroblasts, dose response, cell-based, non-viral oncogenic, luminescence (AID 1934); format: functional; conditions: Homo sapiens
# BJ [12] = assay: cytotoxicity toward BJ-TERT fibroblasts, dose response, cell-based, RAS-independent, luminescence (AID 1933); format: functional; conditions: Homo sapiens
# BJ [13] = assay: cytotoxicity toward BJ-TERT-LT-ST fibroblasts, dose response, cell-based, RAS-independent, luminescence (AID 1935); format: functional; conditions: Homo sapiens;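 note: BJ fibroblasts immortalized with TERT plus LT and ST oncogenes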
# BJ [14] = assay: cells; format: functional, cell-based; conditions: Homo sapiens
# Cytochrome P450 2C9 = Cytochrome P450 2C9 (Homo sapiens, UniProt P11712)
# Cytochrome P450 2C19 = Cytochrome P450 2C19 (Homo sapiens, UniProt P33261); assay: Cytochrome panel assay with activity outcomes. Panel member name: p450-cyp2c19 Compounds with AC50 equal or less than 10 uM are considered active; format: functional; conditions: read-out: AC50
# [15] = cytotoxicity toward NIH3T3 fibroblasts, dose response, counter-screen, cell-based, ATP luminescence, mouse fibroblasts (AID 2010); format: functional;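 note: cells exposed to compound for about 90 hours before reading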
# [16] = inhibitors of intracellular T. cruzi replication, confirmation, NIH3T3 host cells, beta-gal luminescence (AID 2044); format: functional, cell-based;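 note: intracellular parasites grown in NIH/3T3 mouse fibroblasts as host cells; luminescent beta-galactosidase reporter signal from transgenic T. cruzi replicating inside host cells; inhibitors lower the luminescence signal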
# Chain of Induced myeloid leukemia cell differentiation protein Mcl-1 (Q07820 whole entry): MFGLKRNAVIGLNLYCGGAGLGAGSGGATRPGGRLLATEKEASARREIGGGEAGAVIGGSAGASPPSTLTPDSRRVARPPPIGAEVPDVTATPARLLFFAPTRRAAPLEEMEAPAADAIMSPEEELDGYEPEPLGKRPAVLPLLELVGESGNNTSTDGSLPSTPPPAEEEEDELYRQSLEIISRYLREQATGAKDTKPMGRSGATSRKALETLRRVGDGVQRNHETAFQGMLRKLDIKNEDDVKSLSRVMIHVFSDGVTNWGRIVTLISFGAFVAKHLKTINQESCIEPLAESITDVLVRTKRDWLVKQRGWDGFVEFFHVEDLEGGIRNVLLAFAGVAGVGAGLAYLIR
# Chain of Cytochrome P450 3A4 (P08684 whole entry, the tested form may be a part): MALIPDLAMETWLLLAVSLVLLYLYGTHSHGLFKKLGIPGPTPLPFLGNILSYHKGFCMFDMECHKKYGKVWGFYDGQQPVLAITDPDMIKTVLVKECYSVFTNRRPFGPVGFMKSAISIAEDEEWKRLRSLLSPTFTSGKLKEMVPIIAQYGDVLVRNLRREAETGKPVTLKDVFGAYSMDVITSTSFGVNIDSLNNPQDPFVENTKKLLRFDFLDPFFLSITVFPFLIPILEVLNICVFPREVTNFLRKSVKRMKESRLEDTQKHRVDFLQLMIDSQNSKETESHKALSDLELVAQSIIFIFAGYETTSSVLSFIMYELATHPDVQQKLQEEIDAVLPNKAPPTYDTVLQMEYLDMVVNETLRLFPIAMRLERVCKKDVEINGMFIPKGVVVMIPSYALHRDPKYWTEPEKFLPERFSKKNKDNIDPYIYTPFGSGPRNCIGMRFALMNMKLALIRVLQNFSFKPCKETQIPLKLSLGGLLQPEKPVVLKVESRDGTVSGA
# T3 sequence (P49327 whole entry, the tested form may be a part): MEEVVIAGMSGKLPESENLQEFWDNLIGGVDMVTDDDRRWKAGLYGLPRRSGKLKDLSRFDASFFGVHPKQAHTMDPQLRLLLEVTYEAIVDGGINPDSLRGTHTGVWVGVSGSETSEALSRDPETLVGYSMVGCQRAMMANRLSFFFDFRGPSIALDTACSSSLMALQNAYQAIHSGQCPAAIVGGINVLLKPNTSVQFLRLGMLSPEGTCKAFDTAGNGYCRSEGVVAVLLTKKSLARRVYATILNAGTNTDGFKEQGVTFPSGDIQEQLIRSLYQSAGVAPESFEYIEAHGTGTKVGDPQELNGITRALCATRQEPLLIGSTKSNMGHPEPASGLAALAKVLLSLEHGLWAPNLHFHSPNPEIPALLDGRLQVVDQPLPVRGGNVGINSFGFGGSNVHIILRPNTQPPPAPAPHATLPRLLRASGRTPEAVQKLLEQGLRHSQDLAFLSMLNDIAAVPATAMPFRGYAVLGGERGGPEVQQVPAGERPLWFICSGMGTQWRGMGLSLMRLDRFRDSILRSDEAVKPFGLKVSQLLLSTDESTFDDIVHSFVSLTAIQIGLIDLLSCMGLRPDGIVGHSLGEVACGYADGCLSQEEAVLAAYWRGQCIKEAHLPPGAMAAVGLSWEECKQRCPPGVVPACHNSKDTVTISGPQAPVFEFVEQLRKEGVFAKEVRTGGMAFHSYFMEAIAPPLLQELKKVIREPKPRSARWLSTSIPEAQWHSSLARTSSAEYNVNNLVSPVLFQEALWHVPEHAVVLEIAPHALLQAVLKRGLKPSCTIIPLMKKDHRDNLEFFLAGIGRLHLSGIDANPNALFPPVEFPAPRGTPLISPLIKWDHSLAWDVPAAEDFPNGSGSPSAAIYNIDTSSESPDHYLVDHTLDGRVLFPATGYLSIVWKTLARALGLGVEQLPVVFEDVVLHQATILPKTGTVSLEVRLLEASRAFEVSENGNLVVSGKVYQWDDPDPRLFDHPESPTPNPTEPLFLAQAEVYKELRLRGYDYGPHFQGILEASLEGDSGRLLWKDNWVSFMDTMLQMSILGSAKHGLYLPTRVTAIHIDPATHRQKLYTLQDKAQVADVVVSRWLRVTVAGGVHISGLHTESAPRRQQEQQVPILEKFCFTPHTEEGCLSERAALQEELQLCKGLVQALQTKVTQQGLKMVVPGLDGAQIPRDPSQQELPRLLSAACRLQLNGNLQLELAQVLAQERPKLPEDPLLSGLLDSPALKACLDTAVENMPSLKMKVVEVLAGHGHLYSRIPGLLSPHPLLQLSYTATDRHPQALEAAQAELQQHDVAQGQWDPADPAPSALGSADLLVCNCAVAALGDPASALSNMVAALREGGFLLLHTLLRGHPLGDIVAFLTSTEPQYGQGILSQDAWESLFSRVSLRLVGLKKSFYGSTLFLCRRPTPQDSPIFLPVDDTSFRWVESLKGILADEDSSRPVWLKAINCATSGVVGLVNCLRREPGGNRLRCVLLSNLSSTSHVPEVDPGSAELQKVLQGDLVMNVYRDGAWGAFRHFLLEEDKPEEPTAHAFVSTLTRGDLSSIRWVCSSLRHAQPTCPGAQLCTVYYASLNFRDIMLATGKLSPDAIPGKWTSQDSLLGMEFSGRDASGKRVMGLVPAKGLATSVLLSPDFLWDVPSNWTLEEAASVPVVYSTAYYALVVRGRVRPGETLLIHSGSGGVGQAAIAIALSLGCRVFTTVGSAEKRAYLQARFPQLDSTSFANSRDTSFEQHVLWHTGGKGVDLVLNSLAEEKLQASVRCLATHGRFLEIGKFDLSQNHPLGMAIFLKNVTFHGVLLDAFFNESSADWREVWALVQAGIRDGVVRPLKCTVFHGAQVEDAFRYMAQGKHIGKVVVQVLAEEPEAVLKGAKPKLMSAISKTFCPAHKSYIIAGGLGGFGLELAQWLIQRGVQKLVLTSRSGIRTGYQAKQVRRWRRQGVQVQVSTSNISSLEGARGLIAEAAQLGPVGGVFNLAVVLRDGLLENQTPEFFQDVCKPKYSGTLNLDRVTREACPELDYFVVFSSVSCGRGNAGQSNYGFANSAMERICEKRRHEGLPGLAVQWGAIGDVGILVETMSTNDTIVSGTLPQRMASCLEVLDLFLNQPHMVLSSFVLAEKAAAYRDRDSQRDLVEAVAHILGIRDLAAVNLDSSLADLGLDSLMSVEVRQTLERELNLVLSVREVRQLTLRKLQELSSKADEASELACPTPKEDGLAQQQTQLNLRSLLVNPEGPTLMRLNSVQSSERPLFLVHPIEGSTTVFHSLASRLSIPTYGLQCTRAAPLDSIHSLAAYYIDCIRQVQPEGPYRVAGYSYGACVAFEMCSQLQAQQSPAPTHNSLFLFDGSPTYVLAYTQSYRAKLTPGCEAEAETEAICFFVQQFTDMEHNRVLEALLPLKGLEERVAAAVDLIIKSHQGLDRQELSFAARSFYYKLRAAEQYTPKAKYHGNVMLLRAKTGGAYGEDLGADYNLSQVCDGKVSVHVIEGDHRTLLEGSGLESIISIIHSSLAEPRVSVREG
# Chain of Cytochrome P450 2C9 (P11712 whole entry): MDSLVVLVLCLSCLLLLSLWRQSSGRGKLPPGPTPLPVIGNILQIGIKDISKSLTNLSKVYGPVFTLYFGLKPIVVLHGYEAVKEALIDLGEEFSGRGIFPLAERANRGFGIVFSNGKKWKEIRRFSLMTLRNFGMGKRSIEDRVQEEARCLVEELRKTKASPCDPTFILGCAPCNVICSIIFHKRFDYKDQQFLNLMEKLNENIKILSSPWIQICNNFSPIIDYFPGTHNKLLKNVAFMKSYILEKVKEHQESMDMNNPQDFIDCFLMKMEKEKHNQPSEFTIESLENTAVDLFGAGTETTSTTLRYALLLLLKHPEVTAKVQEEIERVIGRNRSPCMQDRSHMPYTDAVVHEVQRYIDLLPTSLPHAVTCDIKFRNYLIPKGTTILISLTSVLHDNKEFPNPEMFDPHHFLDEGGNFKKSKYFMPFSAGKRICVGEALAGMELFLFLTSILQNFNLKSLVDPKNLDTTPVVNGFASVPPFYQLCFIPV
# Chain of Cytochrome P450 2C19 (P33261 whole entry): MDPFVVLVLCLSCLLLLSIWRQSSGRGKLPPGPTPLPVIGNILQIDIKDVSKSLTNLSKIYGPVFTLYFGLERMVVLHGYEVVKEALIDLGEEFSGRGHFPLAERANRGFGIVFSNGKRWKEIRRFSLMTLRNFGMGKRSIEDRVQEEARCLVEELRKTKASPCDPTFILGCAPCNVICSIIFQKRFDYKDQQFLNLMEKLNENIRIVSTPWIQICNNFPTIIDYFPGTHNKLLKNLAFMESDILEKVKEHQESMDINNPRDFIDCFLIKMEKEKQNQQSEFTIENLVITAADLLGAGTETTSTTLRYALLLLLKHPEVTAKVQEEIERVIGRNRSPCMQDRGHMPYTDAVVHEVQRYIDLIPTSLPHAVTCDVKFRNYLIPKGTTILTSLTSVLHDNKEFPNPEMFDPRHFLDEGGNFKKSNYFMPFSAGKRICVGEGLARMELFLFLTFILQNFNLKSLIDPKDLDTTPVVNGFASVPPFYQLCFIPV
structure (smiles),measurement,setting,value
N#Cc1c(-c2c(Cl)cccc2Cl)noc1/C=C/Nc1ccc(C(=O)O)cc1,IC50,cells,32.6 µM (active)
same,EC50,Streptococcus,17.5 µM (active)
same,EC50,[1],1.95 µM (active)
same,EC50,Streptokinase A,> 150 µM (not active)
COc1ccc(C)cc1NC(=O)c1cc(S(=O)(=O)N2CCCCC2)ccc1N1CCOCC1,IC50,[2],> 20 µM (inactive)
c1ccc(-c2nn3c(Cn4nnc5ccccc54)nnc3s2)cc1,IC50,cells,> 25 µM (active)
COc1ccc2nc(NC(=O)c3ccccc3[N+](=O)[O-])sc2c1,CC50,[3],45.6 µM (active)
same,IC50,cells,9.33 µM (active)
Clc1ccc(C2[C@H]3CN(Cc4ccc(-c5ccccc5)cc4)[C@H](c4ccccc4)C34CC2(c2cccnc2)C4)cn1 (stereo partly drawn),AC50,Cytochrome P450 3A4,15.8 µM (inconclusive)
CC(C)c1ccc(CCNC(=O)c2ccc([N+](=O)[O-])cc2)cc1,IC50,Fatty acid synthase [4],1.51 µM (active)
same,IC50,Fatty acid synthase [5],1.71 µM (active)
Cc1cc(O)c(C(=O)/C=C/c2cccc([N+](=O)[O-])c2)c(=O)o1,CC50,Vero,22.6 µM (active)
O=C(CCCc1ccccc1)Nc1cccc([N+](=O)[O-])c1,IC50,Fatty acid synthase [4],7.58 µM (active)
same,IC50,Fatty acid synthase [5],3.7 µM (active)
COCCCNC(=O)/C(C#N)=C/c1ccc(OCC(=O)O)c(OC)c1,IC50,[6],2.19 µM (active)
same,IC50,[7],4.75 µM (active)
CCCn1c(-c2ccc(F)cc2)nc2c(N3CCN(C)CC3)nc(C)nc21,AC50,Cytochrome P450 3A4,12.6 µM (inconclusive)
N#Cc1c(-c2ccccc2)c(-c2ccccc2)nn(CC(=O)NNC(=O)Nc2ccc(Cl)cc2)c1=O,IC50,Fatty acid synthase [4],3.55 µM (active)
same,IC50,Fatty acid synthase [5],3.01 µM (active)
COc1ccc(C(=O)C2CCCN(C3CSCCSC3)C2)cc1OC (stereo not drawn),EC50,[8],0.944 µM (active)
CN(C)c1ccc(/C=C/C(=O)c2ccccc2)cc1[N+](=O)[O-],EC50,[9],8.26 µM (active)
same,EC50,[10],7.13 µM (active)
CC(C)c1n[nH]c2c1C(C1C=CCCC1)C(C#N)=C(N)O2 (stereo not drawn),CC50,Vero,21.9 µM (active)
NCCCCc1ccc2ccc3cccc4ccc1c2c34,CC50,Vero,22.6 µM (active)
same,IC50,[2],> 20 µM (inactive)
Nc1c(C(=O)NCc2ccco2)c2nc3ccccc3nc2n1Cc1ccc(F)cc1,EC50,[9],168 µM (active)
same,EC50,[10],348 µM (active)
CN1C[C@@H]2C(c3ccccc3)C3(c4ccc(C#N)cc4)CC2(C3)[C@H]1c1ccccc1 (stereo partly drawn),AC50,Cytochrome P450 3A4,25.1 µM (inconclusive)
NC(=S)N=Nc1c(O)[nH]c2ccccc12,IC50,[2],> 20 µM (inactive)
CCO/C(O)=C1/C(C)=NC(SC)=C(C#N)C1CC(C)C (stereo not drawn),EC50,[11],2.97 µM (active)
same,EC50,BJ [12],7.78 µM (active)
same,EC50,BJ [13],6.28 µM (inconclusive)
same,EC50,BJ [14],35 µM (inconclusive)
O=[N+]([O-])c1ccc(N2CCNCC2)cc1NC1CC1,AC50,Cytochrome P450 2C9,15.8 µM (inconclusive)
same,AC50,Cytochrome P450 2C19,25.1 µM (inconclusive)
same,EC50,[8],0.168 µM (active)
Cc1ccccc1C(=O)Nc1nc(-c2cccnc2)cs1,IC50,[7],> 54 µM (active)
c1ccc2c(c1)ccc1ncccc12,AC50,Cytochrome P450 3A4,31.6 µM (inconclusive)
CC1=C(/C=C/C(C)=C/C=C/C(C)=C\C=O)C(C)(C)CCC1,AC50,Cytochrome P450 3A4,31.6 µM (inconclusive)
CCCN(CCC)CCNC(=O)CCC(=O)Nc1ccc2nc(N3CCOCC3)cc(C)c2c1,EC50,[8],0.473 µM (active)
CN(CCc1ccccn1)C(=O)CC1C(=O)NCCN1Cc1ccccc1C(F)(F)F (stereo not drawn),EC50,[8],5.96 µM (active)
COc1ccc([C@@H]2[C@@H]3C(=O)N(C(C)(C)C)C(=O)[C@@H]3[C@]3(Cc4ccc(Cl)cc4)C(=O)N(c4ccc(Br)cc4)C(=O)N23)cc1,IC50,Fatty acid synthase [4],11.5 µM (active)
same,IC50,Fatty acid synthase [5],11.2 µM (active)
COc1ccc(C[C@H]2CN3C(=NC[C@@H]3Cc3ccc(O)cc3)N2CCNC(=O)c2ccc(C)c(Br)c2)cc1,IC50,[2],> 20 µM (inactive)
CCN(CC)CCSc1nc2cc(OC)ccc2[nH]1,EC50,[8],0.668 µM (active)
O=C(Nc1ccn(CCCNCc2cccc3ccccc23)c(=O)n1)OCc1ccccc1,CC50,Vero,> 25 µM (active)
O=C(C=Cc1ccccc1)c1cccs1,CC50,Vero,> 25 µM (active)
CC(=O)N1N=C(c2ccc(Br)cc2)CC1c1cccc([N+](=O)[O-])c1 (stereo not drawn),IC50,Fatty acid synthase [4],7.1 µM (active)
same,IC50,Fatty acid synthase [5],5.14 µM (active)
COc1cc(/C=N/NC(=O)c2sc(N)c(C#N)c2C)ccc1O,IC50,[2],> 20 µM (inactive)
C=CCn1c(/N=C/c2ccc(N(C)C)cc2)nc2ccccc21,EC50,[8],6.68 µM (active)
COc1ccc(C(=O)NCC(=O)N/N=C/c2c(C)[nH]c3ccccc23)cc1OC,IC50,cells,7.07 µM (active)
CCCCNC(=S)N(C)/N=C/c1ccc(OCC(=O)Nc2c(C)cc(C)cc2C)c(OC)c1,EC50,[9],66.4 µM (active)
same,EC50,[10],95.1 µM (active)
CC(=N)/C(C#N)=C(/O)COc1ncnc2ccccc12,IC50,cells,1.77 µM (active)
CCCOc1ccc(/C=N/NC(=O)CSCc2ccc([N+](=O)[O-])cc2)cc1OCC,IC50,[2],20 µM (active)
CCOC(=O)c1c(NC(=O)N/N=C/c2ccc(O)c(OC)c2)sc(C(C)=O)c1C,IC50,[7],1.17 µM (active)
N=c1n(CCN2CCCCC2)c2ccccc2n1CC(O)c1ccc(Cl)c(Cl)c1 (stereo not drawn),EC50,[9],4.29 µM (active)
same,EC50,[15],> 60 µM (not active)
same,EC50,[16],2.08 µM (active)
same,EC50,[10],4.25 µM (active)
CCOC(=O)c1c(C)cc(O)c(C=O)c1O [ETHYL HEMATOMMATE],AC50,Cytochrome P450 3A4,39.8 µM (inconclusive)
C/C=C/c1ccc2c(c1)OCO2 [ISOSAFROLE],AC50,Cytochrome P450 3A4,25.1 µM (inconclusive)

# — ChEMBL document CHEMBL1201862, “PubChem BioAssay data set” (2004)
